The assay has as its system Purified human neutrophils. The assay can be described thus: Lucigenin dependent chemiluminescence assay (neutrophil respiratory burst / priming for F-met-leu-phe response). Type of assay: cell-based. Conditions: fMLP alone. As to the method:
Purified human neutrophils were pretreated with peptide for 20 minutes before the addition of f-met-leu-phe. The lucigenin dependent chemiluminescence response, which reflects superoxide production, was then measured. The results obtained are set out in Table 2 and are expressed as mV of lucigenin dependent chemiluminescence and represent the maximal cell activity attained.
This experiment was repeated with peptides 304, 308 and 309.
The experiment was also conducted using peptides 393, 394, 395 and 396. […]
Results are expressed as mV of lucigenin dependent chemiluminescence and respresent peak of response i.e. the maximal cell activity attained.

Structures are written as SMILES.

Consider `CSCC[C@H](NC=O)C(=O)N[C@@H](CC(C)C)C(=O)N[C@@H](Cc1ccccc1)C(=O)O` [fMLP, N-formyl-L-methionyl-L-leucyl-L-phenylalanine], for which the Chemiluminescence by setting is: (Exp. 1) 1.53 mV; (Exp. 2) 3.53 mV; (Exp. 3) 1.96 mV.

The values are drawn from patent EP0519976B1, “NEUTROPHIL STIMULATING PEPTIDES” (PEPTIDE TECHNOLOGY LTD, priority 1990, dated 1991).
